Assay results reported in patent publication US20210002723A1, “METHODS FOR ASSESSING RESPONSIVENESS TO ASTHMA TREATMENT BASED ON VNN-1 EXPRESSION AND PROMOTER METHYLATION” (Children's Hospital Medical Center, priority 2014, published 2021).

Columns and labels:
WT mice = experiment: Experimental asthma model (repeated HDM exposure), response to dexamethasone in wild-type mice; format: in vivo, mouse (BALB/c); details: dexamethasone 3 mg/kg i.p. last 5 days, mean ± SEM vs HDM-treated group
Description: (§1) The VNN1^−/− mice used in this study were described in Pitari et al., FEBS letters 2000; 483:149-54. Age- and sex-matched wild-type BALB/c mice were purchased from Harlan Laboratories (Indianapolis, Ind.). All mice were housed in a specific pathogen-free environment following routine practice.
(§2) Mice were exposed to intranasal doses of HDM (20 ug in 50 ul saline) or saline (0.9% NaCl, 50 ul; control group) 3 times a week for 3 weeks as previously described 18. Mice were treated with intra-peritoneal dexamethasone (3 mg/kg in dimethyl sulfoxide, (DMSO)) or DMSO (100 ul) for the last 5 days of the 3 week model. Airway hyperresponsiveness (AHR) was assessed 24 hours after the last HDM challenge using a flexiVent system (SCIREQ, Montreal, QC, Canada) as previously described. See, e.g., Brandt et al., J Allergy Clin Immunol., 2013; 132:1194-204 e2. Bronchoalveolar lavage fluid (BALF) was collected, processed, and inflammatory cells were quantified analyzed as previously described. See Brandt et al., 2013.
(§3) For the experimental asthma model results, individual AHR, total BALF cell counts and eosinophil percentage in mice treated with HDM plus dexamethasone were compared to and normalized by the corresponding mean value in the HDM-treated group. The data are presented as means±SEM. Difference between the WT and VNN1^−/− group was tested by non-parametric Mann Whitney test. A p-value<0.05 was considered significant. Percentage reduction was used to present the steroid response results.

VNN1−/− mice = experiment: Experimental asthma model (repeated HDM exposure), response to dexamethasone in VNN1−/− mice; format: in vivo, mouse; details: dexamethasone 3 mg/kg i.p. last 5 days, mean ± SEM vs HDM-treated group
Description: as §1, §2, §3

`C[C@@H]1C[C@H]2[C@@H]3CCC4=CC(=O)C=C[C@]4(C)[C@@]3(F)[C@@H](O)C[C@]2(C)[C@@]1(O)C(=O)CO` [Dexamethasone, dexamethasone] was tested, and the “average percentage reduction of AHR” value (WT mice; 50 mg/ml methacholine challenge) was 78.1%, the “average percentage reduction of AHR” value (WT mice; 100 mg/ml methacholine challenge) was 80.2% and the “reduction in eosinophils (BALF)” value (WT mice) was 83.6±3.7%. The “reduction in total BALF cells” value (WT mice) was 70.0±4.3%, the “average percentage reduction of AHR” value (VNN1−/− mice; 50 mg/ml methacholine) was 55.2±4.9% and the “average percentage reduction of AHR” value (VNN1−/− mice; 100 mg/ml methacholine) was 53.3%. For the same compound, the “reduction in eosinophils (BALF)” value (VNN1−/− mice) was 36.1% and the “reduction in total BALF cells” value (VNN1−/− mice) was 40.9%.
